Reference: the supplement of paper PMC10331698
± gives the standard deviation of the averaged measurements.

Experiments:
Test in all cases: level (log10 ratio to DMSO vehicle control); higher = higher biomarker level / cell amount than vehicle control
Details in all cases: in DMSO
[1] = compound: O=C(O)C(F)(F)C(F)(F)C(F)(F)C(F)(F)C(F)(F)C(F)(F)C(F)(F)F [Perfluorooctanoic acid]
Method: (§1)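 BioMAP Diversity Plus panel of 12 human primary cell co-culture systems (3C, 4H, LPS, SAg, BT, BF4T, BE3C, CASM3C, HDF3CGF, KF3CT, MyoF, Mphg). Compounds were added 1 h before stimulation and left for 24 h (MyoF 48 h; BT 72 h for soluble read-outs or 6 d for IgG). Biomarkers were read by ELISA, cytotoxicity by SRB, PBMC viability and proliferation by Alamar Blue. Each well value was divided by the mean of 8 DMSO control wells on the same plate and log10 transformed; duplicate blinded samples were tested at 4 concentrations.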

[2] = compound: CN(Cc1cnc2nc(N)nc(N)c2n1)c1ccc(C(=O)N[C@@H](CCC(=O)O)C(=O)O)cc1 [Methotrexate]
Method: as §1

[3] = compound: O=C(CC(=O)C(F)(F)C(F)(F)C(F)(F)F)c1cccs1 [(Perfluorobutyryl)-2-thenoylmethane]
Method: as §1

[4] = compound: OCC(F)(F)C(F)(F)C(F)(F)C(F)(F)C(F)(F)C(F)(F)C(F)(F)C(F)(F)CO [1H,1H,10H,10H-Perfluorodecane-1,10-diol]
Method: as §1

[5] = compound: O=C(Cl)C(F)(F)C(F)(F)C(F)(F)C(=O)Cl [Hexafluoroglutaryl chloride]
Method: as §1

[6] = compound: FC(F)(F)C(F)(F)C(F)(F)C(F)(F)CCI [1H,1H,2H,2H-Perfluorohexyl iodide]
Method: as §1

[7] = compound: OC(C(F)(F)F)(C(F)(F)F)C(O)(C(F)(F)F)C(F)(F)F [Perfluoropinacol]
Method: as §1

Row | Test System | level (log10) ([1]; 6700 nM) | level (log10) ([1]; 20000 nM) | level (log10) ([1]; 60000 nM) | level (log10) ([2]; 1500 nM) | level (log10) ([2]; 4400 nM) | level (log10) ([2]; 13000 nM) | level (log10) ([2]; 40000 nM) | level (log10) ([3]; 6700 nM) | level (log10) ([3]; 20000 nM) | level (log10) ([4]; 6700 nM) | level (log10) ([4]; 20000 nM) | level (log10) ([4]; 60000 nM) | level (log10) ([5]; 6700 nM) | level (log10) ([5]; 20000 nM) | level (log10) ([5]; 60000 nM) | level (log10) ([6]; 6700 nM) | level (log10) ([6]; 20000 nM) | level (log10) ([6]; 60000 nM) | level (log10) ([7]; 6700 nM) | level (log10) ([7]; 20000 nM)
1 | HDF3CGF:SRB | -0.0075 ± 0.026 | 0.0325 ± 0.043 | -0.0245 ± 0.056 | 0.018 ± 0.034 | -0.0135 ± 0.0035 | 0.025 ± 0.011 | 0.014 ± 0.016 | 0.0935 ± 0.005 | 0.0145 ± 0.005 | -0.0485 ± 0.021 | -0.0255 ± 0.091 | -0.224 | -0.004 ± 0.0085 | 0.0295 ± 0.0035 | 0.007 ± 0.014 | 0.0085 ± 0.037 | -0.011 ± 0.0014 | 0.0105 ± 0.028 | -0.027 ± 0.0042 | -0.0055 ± 0.039
2 | HDF3CGF:TIMP-1 | -0.015 ± 0.034 | -0.029 ± 0.0099 | 0.0155 ± 0.00071 | -0.08 ± 0.073 | -0.047 ± 0.082 | -0.0525 ± 0.14 | -0.0755 ± 0.1 | 0.069 ± 0.025 | 0.0215 ± 0.011 | 0.0025 ± 0.0078 | 0.0135 ± 0.0092 | -0.307 | 0.002 ± 0.014 | 0.012 ± 0.025 | 0.0395 ± 0.05 | 0.012 ± 0.037 | -0.0115 ± 0.05 | -0.065 ± 0.083 | 0.015 ± 0.027 | 0.0205 ± 0.032
3 | HDF3CGF:TIMP-2 | -0.013 ± 0.014 | 0.0045 ± 0.019 | 0.033 ± 0.0042 | -0.0655 ± 0.032 | 0 ± 0.11 | -0.005 ± 0.085 | -0.0335 ± 0.15 | -0.115 ± 0.013 | -0.408 ± 0.017 | -0.006 ± 0.014 | -0.0105 ± 0.00071 | -0.095 | -0.0215 ± 0.086 | -0.0155 ± 0.088 | -0.025 ± 0.075 | -0.0105 ± 0.013 | -0.023 ± 0.021 | -0.115 ± 0.0064 | -0.0625 ± 0.005 | -0.126 ± 0.0021
4 | KF3CT:CCL2/MCP-1 | 0.005 ± 0.018 | 0.0145 ± 0.029 | -0.0785 ± 0.011 | 0.052 ± 0.023 | -0.0125 ± 0.03 | -0.016 ± 0.024 | 0.0165 ± 0.0021 | 0.0205 ± 0.013 | 0.006 ± 0.0057 | -0.028 ± 0.021 | -0.024 ± 0.016 | -0.272 | -0.021 ± 0.016 | -0.007 ± 0.017 | 0.0075 ± 0.016 | -0.0255 ± 0.026 | -0.015 ± 0.04 | -0.004 ± 0.047 | 0.0955 ± 0.013 | 0.211 ± 0.024
5 | KF3CT:CD54/ICAM-1 | -0.015 ± 0.011 | -0.011 ± 0.0028 | -0.0095 ± 0.018 | -0.0085 ± 0.012 | -0.011 ± 0.0014 | 0.006 ± 0.0071 | 0.007 ± 0.0042 | -0.0335 ± 0.00071 | -0.0115 ± 0.023 | -0.002 ± 0.0085 | -0.018 ± 0.0057 | -0.125 | -0.013 ± 0.0014 | -0.002 ± 0.0057 | -0.002 ± 0.0028 | -0.0045 ± 0.025 | 0.016 ± 0.016 | -0.005 ± 0.027 | 0.012 ± 0.0099 | 0.0185 ± 0.015
6 | KF3CT:CXCL8/IL-8 | 0.015 ± 0.0057 | 0.0225 ± 0.0064 | -0.011 ± 0.0099 | 0.002 ± 0.017 | 0 ± 0.021 | -0.0085 ± 0.023 | 0.014 ± 0.011 | -0.037 ± 0.027 | -0.027 ± 0.025 | -0.006 ± 0.021 | 0.0055 ± 0.028 | -0.097 | -0.0215 ± 0.013 | -0.0275 ± 0.035 | -0.0085 ± 0.0092 | 0.0135 ± 0.044 | 0.0355 ± 0.042 | 0.0315 ± 0.047 | -0.018 ± 0.011 | -0.005 ± 0.0042
7 | KF3CT:CXCL9/MIG | 0.006 ± 0.016 | 0.006 ± 0.016 | 0.01 ± 0.016 | 0.001 ± 0.0028 | 0.002 ± 0.016 | -0.0005 ± 0.0021 | 0.001 ± 0.0014 | 0.0085 ± 0.0064 | 0.009 ± 0.0057 | -0.0055 ± 0.0092 | -0.0085 ± 0.005 | -0.195 | 0.0025 ± 0.011 | 0.0085 ± 0.011 | 0.008 ± 0.0085 | 0.004 ± 0.0099 | 0.0095 ± 0.011 | 0.0135 ± 0.033 | 0.002 ± 0.0028 | -0.004 ± 0.0071
8 | KF3CT:CXCL10/IP-10 | -0.006 ± 0.0042 | -0.01 ± 0.0042 | -0.0275 ± 0.0064 | 0.0025 ± 0.018 | 0.0015 ± 0.011 | 0.004 ± 0.011 | -0.0005 ± 0.021 | -0.0205 ± 0.00071 | -0.018 ± 0.0014 | -0.006 ± 0.0042 | -0.0195 ± 0.0078 | -0.104 | -0.0105 ± 0.013 | 0.0045 ± 0.0035 | -0.0025 ± 0.015 | 0.012 ± 0.045 | 0.0205 ± 0.028 | 0.017 ± 0.05 | 0.0025 ± 0.0035 | -0.0205 ± 0.0064
9 | KF3CT:IL-1alpha | 0.018 ± 0.0057 | 0.012 ± 0.0014 | -0.0395 ± 0.0035 | -0.0145 ± 0.013 | -0.0225 ± 0.032 | -0.002 ± 0.052 | -0.0145 ± 0.039 | 0.0165 ± 0.005 | 0.009 ± 0.0028 | 0.005 ± 0.027 | -0.01 ± 0.021 | 0.109 | -0.0085 ± 0.0078 | 0.0095 ± 0.013 | -0.012 ± 0.018 | 0.0115 ± 0.037 | 0.0105 ± 0.015 | 0.051 ± 0.0071 | 0.0765 ± 0.028 | 0.155 ± 0.032
10 | KF3CT:MMP-9 | -0.0225 ± 0.026 | 0.003 ± 0.0099 | 0.028 ± 0.011 | 0.017 ± 0.013 | -0.001 ± 0.014 | -0.0045 ± 0.04 | 0.0075 ± 0.019 | -0.107 ± 0.027 | -0.122 ± 0.012 | 0.005 ± 0.03 | 0.0465 ± 0.00071 | -0.197 | -0.0515 ± 0.013 | -0.0255 ± 0.028 | -0.024 ± 0.03 | 0.0055 ± 0.0078 | 0.0035 ± 0.00071 | 0.0115 ± 0.005 | 0.01 ± 0.018 | -0.0245 ± 0.029
11 | KF3CT:PAI-I | 0.0005 ± 0.021 | -0.015 ± 0.02 | -0.079 ± 0.0028 | 0.006 ± 0.014 | -0.036 ± 0.031 | -0.0145 ± 0.025 | -0.007 ± 0.1 | -0.035 ± 0.0071 | -0.058 ± 0.013 | -0.0015 ± 0.021 | 0.023 ± 0.018 | -0.341 | -0.012 ± 0.028 | -0.0005 ± 0.0078 | -0.0055 ± 0.015 | -0.0025 ± 0.023 | -0.001 ± 0.013 | -0.0225 ± 0.015 | 0.001 ± 0.0042 | -0.0435 ± 0.012
12 | KF3CT:SRB | -0.005 ± 0.0014 | -0.003 ± 0.0014 | 0.007 ± 0.037 | 0.0105 ± 0.012 | -0.002 ± 0.0057 | 0.0025 ± 0.0035 | 0.009 ± 0.021 | -0.008 | -0.0105 ± 0.005 | -0.0155 ± 0.015 | -0.022 ± 0.011 | -0.25 | -0.0015 ± 0.005 | 0.005 ± 0.0014 | 0.0055 ± 0.0064 | -0.013 ± 0.0099 | -0.01 ± 0.013 | 0.0035 ± 0.015 | -0.004 ± 0.0042 | -0.014 ± 0.02
13 | KF3CT:TIMP-2 | -0.0195 ± 0.015 | 0.0025 ± 0.016 | 0.035 ± 0.038 | -0.029 ± 0.035 | -0.034 ± 0.069 | -0.0325 ± 0.06 | -0.0195 ± 0.088 | -0.0365 ± 0.00071 | -0.05 ± 0.016 | -0.001 ± 0.011 | 0.011 ± 0.0099 | -0.133 | -0.029 ± 0.023 | 0.003 ± 0.0099 | 0.02 ± 0.034 | -0.0185 ± 0.005 | -0.009 ± 0.018 | -0.008 ± 0.02 | 0.013 ± 0.0085 | 0.0745 ± 0.0064
14 | KF3CT:uPA | 0.0095 ± 0.0021 | 0.012 ± 0.0042 | 0.013 ± 0.017 | -0.0115 ± 0.0021 | -0.0195 ± 0.00071 | -0.031 ± 0.057 | -0.045 ± 0.059 | 0.021 ± 0.0014 | 0.0195 ± 0.005 | 0.007 ± 0.0042 | 0.009 ± 0.0071 | -0.021 | 0.003 ± 0.0099 | 0.0235 ± 0.00071 | 0.015 ± 0.014 | -0.001 ± 0.02 | 0.0045 ± 0.013 | -0.005 ± 0.0099 | 0.0065 ± 0.035 | 0.019 ± 0.021
